Results reported in patent US20220281848A1, “PYRAZOLE-SUBSTITUTED PYRROLIDINONES AS HERBICIDES” (FMC Corporation, priority 2019, published 2022).

Legend:
Assay type in all cases: in vivo
maize = assay: Test D pre-emergence, maize seed treated with a herbicide safener; conditions: ZEAMX, preemergent, 20 DAA
Protocol: (§1) A formulation containing 50 g/L of the test chemical was prepared by dissolving the active ingredient in a mixture of organic solvents and emulsifier, details of which are provided in the table. This formulation was then mixed with a small, variable amount of acetone to aid dissolution, before addition of a 0.2% v/v aqueous solution of an adjuvant, as the aqueous diluent, to form an aqueous spray solution which contains a predetermined concentration of the active ingredient.
(§2) This aqueous spray solution was then sprayed onto plants including maize and wheat that had been seed treated with a herbicide safener, after one day's cultivation (for pre-emergence) or after about 12 days' cultivation (for post-emergence). The plants were grown from seeds sown in standard soil, placed in a glasshouse under controlled conditions (at 24/18° C. or 20/16° C., day/night; 16 h light; 65% humidity). After spray application the plants were then grown in a glasshouse under the same conditions and watered twice daily. After 15 d for post-emergence and 20 DAA for pre-emergence the test was evaluated (100=total damage to plant; 0=no damage to plant).

[1] = system: redroot pigweed (Amaranthus retroflexus, AMARE); assay: Test A post-emergence, redroot pigweed; conditions: after 13 d
In short: (§3)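 Plants sown in standard soil were grown 8 d in a glasshouse (24/16 °C day/night, 14 h light, 65% humidity), then sprayed with compound in acetone/water (50:50) with 0.5% Tween 20 at 15.625, 62.5 or 250 g/ha. Damage was scored after 13 d (0 = none, 100 = total).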

[2] = system: giant foxtail (Setaria faberi, SETFA); assay: Test A pre-emergence, giant foxtail; conditions: after 13 d
In short: (§4)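 Seeds were sown in standard soil in pots, kept one day in a glasshouse (24/16° C. day/night, 14 h light, 65% humidity), then sprayed with compound in acetone/water (50:50) containing 0.5% Tween 20 at 15.625, 62.5 or 250 g/ha. Plants grew on under the same conditions, watered twice daily, and damage was scored after 13 d (0 = none, 100 = total).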

[3] = system: velvetleaf (Abutilon theophrasti, ABUTH); assay: Test A post-emergence, velvetleaf; conditions: after 13 d
In short: as §3

[4] = system: giant foxtail (Setaria faberi, SETFA); assay: Test A post-emergence, giant foxtail; conditions: after 13 d
In short: as §3

[5] = system: velvetleaf (Abutilon theophrasti, ABUTH); assay: Test A pre-emergence, velvetleaf; conditions: after 13 d
In short: as §4

corn (Zea mays, ZEAMX) = assay: Test A pre-emergence, corn; conditions: after 13 d
In short: as §4

[6] = system: barnyardgrass (Echinochloa crus-galli, ECHCG); assay: Test A post-emergence, barnyardgrass; conditions: after 13 d
In short: as §3

wheat = assay: Test D pre-emergence, wheat seed treated with a herbicide safener; conditions: 100=total damage, 0=no damage
Protocol: as §1, §2

[7] = system: redroot pigweed (Amaranthus retroflexus, AMARE); assay: Test A pre-emergence, redroot pigweed; conditions: after 13 d
In short: as §4

CN1C[C@H](c2nn(C)c3c(F)cccc23)[C@@H](C(=O)Nc2cccc(F)c2F)C1=O [Compound 2]
90: damage to plant (100=total damage; 0=no damage) SETFA ([2]; Pre-Emergence at 15.625 g/ha) | damage to plant (100=total damage; 0=no damage) SETFA ([2]; Pre-Emergence at 62.5 g/ha) | damage to plant (100=total damage; 0=no damage) SETFA ([2]; Pre-Emergence at 250 g/ha) | damage to plant (100=total damage; 0=no damage) ECHCG ([6]; Post-Emergence at 62.5 g/ha) | damage to plant (100=total damage; 0=no damage) ECHCG ([6]; Post-Emergence at 250 g/ha)
70: damage to plant (100=total damage; 0=no damage) SETFA ([4]; Post-Emergence at 62.5 g/ha)
0: damage to plant (100=total damage to plant; 0=no damage to plant), ZEAMX (maize; rate 15) | damage to plant (100=total damage to plant; 0=no damage to plant), ZEAMX (maize; rate 30) | damage to plant (100=total damage to plant; 0=no damage to plant), ZEAMX (maize; rate 60) | damage to plant (100=total damage to plant; 0=no damage to plant), ZEAMX (maize; rate 130) | damage to plant (100=total damage to plant; 0=no damage to plant), ZEAMX (maize; rate 250) | damage to plant (100=total damage; 0=no damage) AMARE ([1]; Post-Emergence at 15.625 g/ha) | damage to plant (100=total damage; 0=no damage) AMARE ([1]; Post-Emergence at 62.5 g/ha) | damage to plant (100=total damage; 0=no damage) AMARE ([1]; Post-Emergence at 250 g/ha) | damage to plant (100=total damage; 0=no damage) ABUTH ([3]; Post-Emergence at 15.625 g/ha) | damage to plant (100=total damage; 0=no damage) ABUTH ([3]; Post-Emergence at 62.5 g/ha) | damage to plant (100=total damage; 0=no damage) ABUTH ([3]; Post-Emergence at 250 g/ha) | damage to plant (100=total damage; 0=no damage) SETFA ([4]; Post-Emergence at 15.625 g/ha) | damage to plant (100=total damage; 0=no damage) ABUTH ([5]; Pre-Emergence at 15.625 g/ha) | damage to plant (100=total damage; 0=no damage) ABUTH ([5]; Pre-Emergence at 62.5 g/ha) | damage to plant (100=total damage; 0=no damage) ABUTH ([5]; Pre-Emergence at 250 g/ha) | damage to plant (100=total damage; 0=no damage) ZEAMX (corn (Zea mays, ZEAMX); Pre-Emergence at 15.625 g/ha) | damage to plant (100=total damage; 0=no damage) ZEAMX (corn (Zea mays, ZEAMX); Pre-Emergence at 62.5 g/ha) | damage to plant (100=total damage; 0=no damage) ECHCG ([6]; Post-Emergence at 15.625 g/ha) | damage to plant, TRZAW (wheat; rate 15, 20 DAA) | damage to plant, TRZAW (wheat; rate 30, 20 DAA) | damage to plant, TRZAW (wheat; rate 60, 20 DAA) | damage to plant (100=total damage; 0=no damage) AMARE ([7]; Pre-Emergence at 62.5 g/ha) | damage to plant (100=total damage; 0=no damage) AMARE ([7]; Pre-Emergence at 250 g/ha)
10: damage to plant (100=total damage to plant; 0=no damage to plant), ZEAMX (maize; rate 500) | damage to plant (100=total damage; 0=no damage) ZEAMX (corn (Zea mays, ZEAMX); Pre-Emergence at 250 g/ha) | damage to plant, TRZAW (wheat; rate 130, 20 DAA) | damage to plant (100=total damage; 0=no damage) AMARE ([7]; Pre-Emergence at 15.625 g/ha)
80: damage to plant (100=total damage; 0=no damage) SETFA ([4]; Post-Emergence at 250 g/ha) | damage to plant, TRZAW (wheat; rate 500, 20 DAA)
20: damage to plant, TRZAW (wheat; rate 250, 20 DAA)
